What was measured:
USP1-UAF1 = USP1-UAF1 (Homo sapiens, UniProt O94782); experiment: Ubiquitin Rhodamine assay of USP1-UAF1 activity; assay type: biochemical
Experimental: Certain compounds of the disclosure were assessed for USP1-UAF1 activity in a Ubiquitin Rhodamine assay as described in Biology Example 1.

monoubiquitinated PCNA = experiment: AlphaLISA assay measuring monoubiquitinated PCNA in MDA-MB-436; assay type: cell-based; conditions: Homo sapiens, MDA-MB-436, monoubiquitinated PCNA, read-out: Alpha Lisa IC50
Text: Table 1 also indicates IC50 values for exemplary compounds in an AlphaLISA assay measuring monoubiquitinated PCNA in a BRCA1 mutant cell line (MDA-MB-436; column 7).

HCC1954 = experiment: Viability assay, BRCA1 WT cell line HCC1954; assay type: cell-based; conditions: Homo sapiens, HCC1954, viability, read-out: HCC1954 rel IC50
Text: (§1) Table 1 also indicates IC50 values in a viability assay for a non-isogenic pair of BRCA1 mutant (column 5-MDA-MB-436) and BRCA1 WT (column 6—HCC1954) cell lines. These values indicate the effect of treatment with compound on cell survival.

MDA-MB-436 = experiment: Viability assay, BRCA1 mutant cell line MDA-MB-436; assay type: cell-based; conditions: Homo sapiens, MDA-MB-436, viability, BRCA1 mutant MDA-MB-436; read-out: MDA-MB-436 rel IC50
Text: as §1

Chain of USP1-UAF1 (O94782 whole entry): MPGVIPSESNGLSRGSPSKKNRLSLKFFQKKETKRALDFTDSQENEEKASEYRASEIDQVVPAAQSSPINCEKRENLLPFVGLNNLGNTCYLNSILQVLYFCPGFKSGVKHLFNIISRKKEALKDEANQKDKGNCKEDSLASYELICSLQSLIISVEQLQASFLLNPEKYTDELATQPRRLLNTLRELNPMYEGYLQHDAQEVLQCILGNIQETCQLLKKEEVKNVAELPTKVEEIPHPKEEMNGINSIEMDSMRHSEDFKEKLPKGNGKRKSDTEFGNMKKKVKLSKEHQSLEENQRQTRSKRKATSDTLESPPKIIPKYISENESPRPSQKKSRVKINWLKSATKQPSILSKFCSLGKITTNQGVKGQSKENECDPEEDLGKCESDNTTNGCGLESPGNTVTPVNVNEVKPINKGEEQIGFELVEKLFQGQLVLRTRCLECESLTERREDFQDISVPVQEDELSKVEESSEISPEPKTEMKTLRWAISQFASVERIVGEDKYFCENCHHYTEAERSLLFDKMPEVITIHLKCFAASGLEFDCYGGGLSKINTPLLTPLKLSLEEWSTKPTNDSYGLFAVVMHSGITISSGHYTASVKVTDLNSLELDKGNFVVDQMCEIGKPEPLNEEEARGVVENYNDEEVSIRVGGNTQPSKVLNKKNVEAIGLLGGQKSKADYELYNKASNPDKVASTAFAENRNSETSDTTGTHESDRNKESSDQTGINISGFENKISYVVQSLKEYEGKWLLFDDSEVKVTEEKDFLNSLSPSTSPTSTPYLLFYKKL
Chain of USP1-UAF1 (Q8TAF3 whole entry partner): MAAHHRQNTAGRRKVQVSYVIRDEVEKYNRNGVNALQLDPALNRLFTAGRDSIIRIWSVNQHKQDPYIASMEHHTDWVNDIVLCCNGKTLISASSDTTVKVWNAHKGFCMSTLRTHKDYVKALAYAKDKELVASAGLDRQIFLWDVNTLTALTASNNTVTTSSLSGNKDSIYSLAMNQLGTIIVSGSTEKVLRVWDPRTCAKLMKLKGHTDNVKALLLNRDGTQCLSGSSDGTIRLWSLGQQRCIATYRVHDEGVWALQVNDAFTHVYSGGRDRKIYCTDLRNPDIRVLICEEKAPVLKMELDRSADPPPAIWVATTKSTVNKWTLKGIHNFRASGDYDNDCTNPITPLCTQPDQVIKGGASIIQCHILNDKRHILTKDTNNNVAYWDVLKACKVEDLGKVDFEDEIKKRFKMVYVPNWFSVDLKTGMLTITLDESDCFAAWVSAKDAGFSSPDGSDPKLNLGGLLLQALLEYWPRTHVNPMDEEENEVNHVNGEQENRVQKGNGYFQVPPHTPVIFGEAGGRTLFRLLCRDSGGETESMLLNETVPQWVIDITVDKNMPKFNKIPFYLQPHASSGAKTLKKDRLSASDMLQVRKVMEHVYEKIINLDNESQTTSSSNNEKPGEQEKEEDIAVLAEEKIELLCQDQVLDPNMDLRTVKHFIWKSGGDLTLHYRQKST

| SMILES | IC50 (USP1-UAF1) [nM] | IC50 (monoubiquitinated PCNA) [nM] | IC50 (HCC1954) [nM] | IC50 (MDA-MB-436) [nM] |
| --- | --- | --- | --- | --- |
| CC(C)c1ccccc1-c1ncc2c(n1)n(CC1CCN(c3nc(C(F)(F)F)cn3C)CC1)c(=N)n2C [Example B-1, 2-(2-isopropylphenyl)-7-methyl-9-((1-(1-methyl-4-(trifluoromethyl)-1H-imidazol-2-yl)piperidin-4-yl)methyl)-7H-purin-8(9H)-imine] | 100 to 10000 | 100 to 250 | 250 to 10000 | 100 to 250 |
| COc1ncnc(C2CC2)c1-c1ncc2c(n1)n(Cc1ccc(-c3nc(C(F)(F)F)cn3C)cc1)c(=N)n2CC(F)F [Example T-123, 2-(4-cyclopropyl-6-methoxy-pyrimidin-5-yl)-7-(2,2-difluoroethyl)-9-[[4-[1-methyl-4-(trifluoromethyl)imidazol-2-yl]phenyl]methyl]purin-8-imine] | 30 to 100 | < 100 | ≥ 10000 | < 100 |
| Cn1cc(Cl)nc1-c1ccc(Cn2c(=N)n(C)c3cnc(-c4ccccc4Cl)nc32)cc1 [Example A-11, 9-(4-(4-chloro-1-methyl-1H-imidazol-2-yl)benzyl)-2-(2-chlorophenyl)-7-methyl-7,9-dihydro-8H-purin-8-imine] | 100 to 10000 | 250 to 10000 | ≥ 10000 | 250 to 10000 |
| CCOc1cc(C(F)(F)F)nn1-c1ccc(Cn2c(=N)n(C)c3cnc(-c4ccccc4C(F)(F)F)nc32)cn1 [Example T-091] | – | 250 to 10000 | ≥ 10000 | 250 to 10000 |
| CC(C)c1ccccc1-c1ncc2c(n1)n(Cc1cc(F)c(-c3nc(C(F)(F)F)cn3C)c(F)c1)c(=N)n2C [Example A-43, 9-(3,5-difluoro-4-(1-methyl-4-(trifluoromethyl)-1H-imidazol-2-yl)benzyl)-2-(2-isopropylphenyl)-7-methyl-7,9-dihydro-8H-purin-8-imine] | 30 to 100 | 250 to 10000 | – | – |
| Cn1cc(C(F)(F)F)nc1-c1ccc(Cn2c(=N)n(C)c3cnc(-c4ccccc4C(F)(F)F)nc32)cc1 [Example T-045] | < 30 | 100 to 250 | – | < 100 |
| CC(C)c1ccccc1-c1nc(O)c2c(n1)n(Cc1ccc(-c3nc(C(F)(F)F)cn3C)cc1)c(=N)n2C [Example A-32, 8-imino-2-(2-isopropylphenyl)-7-methyl-9-(4-(1-methyl-4-(trifluoromethyl)-1H-imidazol-2-yl)benzyl)-8,9-dihydro-7H-purin-6-ol] | 100 to 10000 | – | ≥ 10000 | 250 to 10000 |
| COn1cc(C(F)(F)F)nc1-c1ccc(Cn2c(=N)n(C)c3cnc(-c4ccccc4C(F)(F)F)nc32)nc1 [Example T-048] | 100 to 10000 | – | ≥ 10000 | 250 to 10000 |
| Cc1noc(C)c1-c1ncc2c(n1)n(Cc1ccc(-c3nc(C(F)(F)F)cn3C)cc1)c(=N)n2C [Example T-062] | 100 to 10000 | – | ≥ 10000 | 250 to 10000 |
| COc1nccc(C)c1-c1ncc2c(n1)n(Cc1ccc(-c3nc(C(F)(F)F)cn3C)cc1)c(=N)n2C [Example T-028] | 100 to 10000 | – | ≥ 10000 | 250 to 10000 |
| COc1ccn(-c2ccc(Cn3c(=N)n(C)c4cnc(-c5ccccc5C(C)C)nc43)cc2F)n1 [Example T-074] | 100 to 10000 | – | 250 to 10000 | 250 to 10000 |
| CC(C)c1ccccc1-c1ncc2c(n1)n(Cc1ccc(-c3nccn3C)cc1)c(=N)n2C [Example A-2, 2-(2-isopropylphenyl)-7-methyl-9-(4-(1-methyl-1H-imidazol-2-yl)benzyl)-7H-purin-8(9H)-imine] | 100 to 10000 | – | ≥ 10000 | 250 to 10000 |
| COc1cc(C(F)(F)F)nn1-c1ccc(Cn2c(=N)n(C)c3cnc(-c4ccccc4C(F)(F)F)nc32)cn1 [Example T-055] | 100 to 10000 | – | ≥ 10000 | 250 to 10000 |
| Cn1cc(C(F)(F)F)nc1-c1ccc(Cn2c(=N)n(CC(F)(F)F)c3cnc(-c4c(C(F)(F)F)cnn4C)nc32)cc1 [Example T-101] | < 30 | – | 250 to 10000 | 100 to 250 |
| Cc1cc(-c2nc(C(F)(F)F)cn2C)cc(C)c1Cn1c(=N)n(C)c2cnc(-c3ccccc3C(F)(F)F)nc21 [Example T-080] | 100 to 10000 | – | 250 to 10000 | 250 to 10000 |
| COc1ncnc(C2CC2)c1-c1ncc2c(n1)n(C1(c3ccc(-c4nc(C(F)(F)F)cn4C)cc3)CC1)c(=N)n2C [Example T-086] | – | 100 to 250 | ≥ 10000 | 100 to 250 |

Other lines, results leading:

| IC50 (USP1-UAF1) [nM] | IC50 (monoubiquitinated PCNA) [nM] | IC50 (HCC1954) [nM] | IC50 (MDA-MB-436) [nM] | SMILES |
| --- | --- | --- | --- | --- |
| 30 to 100 | 100 to 250 | ≥ 10000 | < 100 | Cn1cc(C(F)(F)F)nc1-c1ccc(Cn2c(=N)n(CC(F)(F)F)c3cnc(-c4c(OC(F)(F)F)ccnc4C4CC4)nc32)cc1 [Example T-112, 2-[2-cyclopropyl-4-(trifluoromethoxy)-3-pyridyl]-9-[[4-[1-methyl-4-(trifluoromethyl)imidazol-2-yl]phenyl]methyl]-7-(2,2,2-trifluoroethyl)purin-8-imine] |
| 100 to 10000 | 100 to 250 | ≥ 10000 | 250 to 10000 | Cn1cc(C(F)(F)F)nc1-c1ccc(Cn2c(=N)n(C)c3cnc(-c4cccnc4OCC(F)(F)F)nc32)cc1 [Example T-079, 7-methyl-9-[[4-[1-methyl-4-(trifluoromethyl)imidazol-2-yl]phenyl]methyl]-2-[2-(2,2,2-trifluoroethoxy)-3-pyridyl]purin-8-imine] |
| 100 to 10000 | 250 to 10000 | ≥ 10000 | 100 to 250 | COCCn1c(=N)n(Cc2ccc(-c3nc(C(F)(F)F)cn3C)cc2)c2nc(-c3c(OC)ncnc3C3CC3)ncc21 [Example T-134, 2-(4-cyclopropyl-6-methoxy-pyrimidin-5-yl)-7-(2-methoxyethyl)-9-[[4-[1-methyl-4-(trifluoromethyl)imidazol-2-yl]phenyl]methyl]purin-8-imine] |
| 100 to 10000 | 100 to 250 | ≥ 10000 | 100 to 250 | COc1ncnc(C2(C)CC2)c1-c1ncc2c(n1)n(Cc1ccc(-c3nc(C(F)(F)F)cn3C)cc1)c(=N)n2CC(F)(F)F [Example T-137, 2-[4-methoxy-6-(1-methylcyclopropyl)pyrimidin-5-yl]-9-[[4-[1-methyl-4-(trifluoromethyl)imidazol-2-yl]phenyl]methyl]-7-(2,2,2-trifluoroethyl)purin-8-imine] |
| 30 to 100 | 100 to 250 | – | 250 to 10000 | Cn1cc(C(F)(F)F)nc1-c1ccc(Cn2c(=N)n(C)c3cnc(-c4c(C(F)(F)F)cnn4C)nc32)cc1 [Example T-010] |
| < 30 | < 100 | – | – | CC(C)c1ccccc1-c1ncc2c(n1)n(Cc1ccc(-c3nc(C(F)(F)F)cn3C)c(F)c1)c(=N)n2C [Example A-33, 9-(3-fluoro-4-(1-methyl-4-(trifluoromethyl)-1H-imidazol-2-yl)benzyl)-2-(2-isopropylphenyl)-7-methyl-7,9-dihydro-8H-purin-8-imine] |
| 100 to 10000 | – | 250 to 10000 | 250 to 10000 | CC(C)c1ccccc1-c1ncc2c(n1)n(CC1CCC(c3nc(C(F)(F)F)cn3C)CC1)c(=N)n2C (centres unmarked) [Example T-006] |
| 100 to 10000 | – | ≥ 10000 | 250 to 10000 | Cn1cc(C(F)(F)F)nc1-c1cc(F)c(Cn2c(=N)n(C)c3cnc(-c4ccccc4C(F)(F)F)nc32)c(F)c1 [Example T-046] |
| 100 to 10000 | – | ≥ 10000 | 250 to 10000 | COc1ncnc(C2CC2)c1-c1ncc2c(n1)n(Cc1ccc(-c3nc(C(F)(F)F)cn3C)s1)c(=N)n2C [Example T-007] |
| 100 to 10000 | – | ≥ 10000 | 250 to 10000 | Cn1cc(C(F)(F)F)nc1-c1ccc(Cn2c(=N)n(C)c3cnc(-c4cccnc4CC(F)(F)F)nc32)cc1 [Example T-042] |
| 100 to 10000 | – | ≥ 10000 | 250 to 10000 | Cn1cc(C(F)(F)F)nc1-c1ccc(Cn2c(=N)n(C)c3cnc(-c4cccnc4C(F)(F)F)nc32)cc1 [Example T-025] |
| 100 to 10000 | – | ≥ 10000 | 250 to 10000 | CC(C)c1cnccc1-c1ncc2c(n1)n(Cc1ccc(-c3nc(C(F)(F)F)cn3C)cc1)c(=N)n2C [Example T-096] |
| 100 to 10000 | – | ≥ 10000 | ≥ 10000 | COc1ncncc1-c1ncc2c(n1)n(Cc1ccc(-c3nc(C(F)(F)F)cn3C)cc1)c(=N)n2C [Example T-058] |
| 100 to 10000 | – | ≥ 10000 | 250 to 10000 | COc1ncnc(C2CC2)c1-c1ncc2c(n1)n(C[C@H]1CC[C@H](c3nc(C(F)(F)F)cn3C)CC1)c(=N)n2C [Example T-089] |
| 100 to 10000 | – | 250 to 10000 | 250 to 10000 | Cc1nc(-c2ccccc2)nc2c1n(C)c(=N)n2Cc1ccc(-c2nc(C(F)(F)F)cn2C)cc1 (single isomer, unassigned) [Example A-15b, 6,7-dimethyl-9-(4-(1-methyl-4-(trifluoromethyl)-1H-imidazol-2-yl)benzyl)-2-phenyl-7,9-dihydro-8H-purin-8-imine] |
| 30 to 100 | – | ≥ 10000 | < 100 | COc1ncnc(C2CC2)c1-c1ncc2c(n1)n(Cc1ccc(-c3nc(C(F)(F)F)cn3C)cc1O)c(=N)n2C [Example T-133, 2-[[2-(4-cyclopropyl-6-methoxy-pyrimidin-5-yl)-8-imino-7-methyl-purin-9-yl]methyl]-5-[1-methyl-4-(trifluoromethyl)imidazol-2-yl]phenol] |
| 100 to 10000 | – | 250 to 10000 | 250 to 10000 | Cn1c(=N)n(Cc2ccc(-c3nc(C(F)(F)F)c[nH]3)c(F)c2)c2nc(-c3ccccc3C(F)(F)F)ncc21 [Example T-068] |

From US20240059689A1, “PURINE DERIVATIVES AS ANTICANCER AGENTS” (Tango Therapeutics, Inc., priority 2021, published 2024)
